Source: US20090325960A1, “METHOD FOR TREATING INFLAMMATORY DISEASES USING RHO KINASE INHIBITOR COMPOUNDS” (priority 2008, published 2009)
Where two headings read alike, the source gives them in different places.

Assays:
[1] = tested on: human neutrophils; assay: Human neutrophil chemotaxis (fMLP-induced, Boyden chamber); type: cell-based; conditions: average
Experimental: Peripheral blood from healthy human volunteers was collected and the neutrophils were isolated by Ficoll-paque density centrifugation followed by dextran sedimentation and hypotonic lysis of the red blood cells. Neutrophil chemotaxis was assessed using a modified Boyden Chamber (Neuroprobe, 96-well) with a 3 μm pore polycarbonate membrane. The ability of the tested compounds to block chemotaxis induced by a 1 μM fMLP challenge during a one hour incubation at 37° C. with 5% CO2 was assessed in a dose response manner.

[2] = tested on: cytokine secretion from LPS-stimulated human monocytes; assay: Human monocyte cytokine secretion assay (LPS-stimulated); type: cell-based
Experimental: Peripheral blood from healthy human volunteers was collected and the monocytes isolated via Ficoll-paque density centrifugation. […] The cells were allowed to pre-incubate with test compound at the indicated concentration for 30 minutes (37° C., 5% CO2, humidified air); after which the supernatant was removed and media containing compound and 1 ng/mL LPS was added. Cells were allowed to incubate with compounds and LPS for 4 hours at 37° C. after which the supernatant was removed and stored at −80° C. Cytokine concentrations in the supernatant were determined using commercially available Bio-Rad Bio-Plex™ kits according the manufacturer's instructions.

[3] = biological target: p70S6K human enzyme (Homo sapiens, UniProt P23443, T412E); assay: p70S6K inhibition assay (IMAP FP); type: biochemical
Chain of p70S6K human enzyme (P23443 whole entry T412E): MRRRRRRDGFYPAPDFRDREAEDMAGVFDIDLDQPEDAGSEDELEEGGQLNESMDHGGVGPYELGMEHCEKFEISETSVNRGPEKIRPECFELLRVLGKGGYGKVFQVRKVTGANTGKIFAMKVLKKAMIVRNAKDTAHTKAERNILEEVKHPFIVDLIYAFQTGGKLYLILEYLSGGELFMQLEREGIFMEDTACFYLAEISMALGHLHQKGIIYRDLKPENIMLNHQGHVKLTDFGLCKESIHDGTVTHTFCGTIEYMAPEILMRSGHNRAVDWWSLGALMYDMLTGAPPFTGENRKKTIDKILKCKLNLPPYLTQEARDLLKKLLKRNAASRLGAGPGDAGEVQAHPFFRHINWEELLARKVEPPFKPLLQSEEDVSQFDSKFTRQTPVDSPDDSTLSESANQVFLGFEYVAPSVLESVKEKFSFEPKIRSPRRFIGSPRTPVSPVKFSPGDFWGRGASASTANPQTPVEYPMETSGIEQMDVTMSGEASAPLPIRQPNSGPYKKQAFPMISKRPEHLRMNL
Experimental: (§1) Inhibition of Akt3 and p70S6K activity was determined using the IMAP™ FP Progressive Binding Kit (Molecular Devices product number R8127). […] Following the pre-incubation, 30 μM ATP was added to initiate the reaction. After 60 minutes at RT, Molecular Devices IMAP™ binding solution was added to bind phosphorylated substrate. After 30 minutes of incubation in the presence of the IMAP™ beads the fluorescence polarization was read and the ratio was reported as mP. IC50 results were calculated using the Prism software from Graphpad. The Ki values were determined according to the following formula: Ki=IC50/(1+([ATP Challenge]/EC50 ATP)).

[4] = tested on: A-10 rat thoracic aorta cells; assay: PDGF-stimulated smooth muscle cell proliferation assay (BrdU incorporation); type: cell-based
Experimental: Effects on cell proliferation were measured using a bromodeoxyuridine (BrdU) incorporation assay. […] Serum free media containing 0.1% BSA was added to the cells. 24 hours later the media was removed and replaced with warmed serum free media. […] Proliferation was then monitored using the BrdU Cell Proiferation Assay, HTS (Calbiochem cat. # HTS01). BrdU was allowed to incorporate into cells for 24 hours prior to the addition of fixative/denaturing solution and the fluorometric detection of incorporated BrdU using a BrdU antibody as per manufacturer's directions. Data are reported as a percent of the PDGF-stimulated BrdU incorporation.

[5] = biological target: T1, Akt3 human enzyme (Homo sapiens, UniProt Q9Y243); assay: Akt3 inhibition assay (IMAP FP); type: biochemical
T1 construct: purchased Upstate Chemicon 14-502
T1 sequence (Q9Y243 whole entry): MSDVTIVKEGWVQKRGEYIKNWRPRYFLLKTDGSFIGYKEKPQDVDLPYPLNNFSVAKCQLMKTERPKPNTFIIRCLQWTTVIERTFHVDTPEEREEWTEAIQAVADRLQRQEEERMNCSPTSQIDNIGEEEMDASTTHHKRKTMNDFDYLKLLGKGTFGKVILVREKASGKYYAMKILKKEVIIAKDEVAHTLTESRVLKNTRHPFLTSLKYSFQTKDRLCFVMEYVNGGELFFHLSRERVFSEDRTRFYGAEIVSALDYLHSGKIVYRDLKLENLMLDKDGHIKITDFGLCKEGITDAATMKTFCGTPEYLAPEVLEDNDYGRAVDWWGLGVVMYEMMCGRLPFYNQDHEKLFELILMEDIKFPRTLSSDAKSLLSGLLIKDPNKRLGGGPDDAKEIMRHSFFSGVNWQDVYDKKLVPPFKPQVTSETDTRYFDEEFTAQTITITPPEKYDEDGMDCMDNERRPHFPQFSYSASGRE
Experimental: as §1

[6] = Compound plasma concentrations in unsensitized mice at 15 min post administration; type: in vivo; conditions: mouse, 15 μmol/kg; mean plasma concentration in mice at 15 minutes post oral administration; read-out: Mouse Oral PK
Experimental: Additionally, compound concentrations were determined in the plasma and lungs of male, ovalbumin-sensitized, Balb/c mice from a murine model of asthma. Test compounds were formulated in water or 1% polysorbate 80 and dosed at 15 μmol/kg for intraperitoneal (IP) or oral (PO) administration or formulated for intratracheal (IT) administration and dosed at 5 μmol/kg, which directly targets the lungs. Following completion of the in vivo study, mice were euthanized and blood and plasma collected approximately 2.5-3 hours post administration of test compound for bronchodialator (BD) studies and 24 hours post administration for anti-inflamatory (AI) studies. Lungs were homogenized in Matrix A lysing tubes using a FastPrep 24 tissue and cell homogenizer (MP Biomedicals, Solon, Ohio). Both plasma samples and lung extracts were assayed for compound concentrations using an on-line, solid phase extraction LC/MS/MS system.

[7] = biological target: T2, ROCK1 (Homo sapiens, UniProt Q13464); assay: Rho kinase inhibition assay (IMAP fluorescence polarization), ROCK1; type: biochemical
T2 construct: purchased Upstate/Chemicon 14-601
T2 sequence (Q13464 17-535 limits assumed): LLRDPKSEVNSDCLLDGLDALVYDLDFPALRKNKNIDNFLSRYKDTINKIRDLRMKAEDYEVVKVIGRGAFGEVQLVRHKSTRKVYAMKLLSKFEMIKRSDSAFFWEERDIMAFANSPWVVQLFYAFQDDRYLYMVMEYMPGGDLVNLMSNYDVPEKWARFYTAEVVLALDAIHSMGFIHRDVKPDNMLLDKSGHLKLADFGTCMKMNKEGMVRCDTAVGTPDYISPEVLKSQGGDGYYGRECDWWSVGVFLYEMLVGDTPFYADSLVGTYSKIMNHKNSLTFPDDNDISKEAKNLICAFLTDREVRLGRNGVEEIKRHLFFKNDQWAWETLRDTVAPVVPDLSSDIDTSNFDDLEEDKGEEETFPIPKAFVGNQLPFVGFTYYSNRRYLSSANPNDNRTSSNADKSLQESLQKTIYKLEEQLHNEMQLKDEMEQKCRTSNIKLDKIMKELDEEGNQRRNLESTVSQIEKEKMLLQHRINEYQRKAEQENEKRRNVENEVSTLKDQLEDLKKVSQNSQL
Experimental: Following the pre-incubation, 10 μM ATP was added to initiate the reaction. After 60 minutes at room temperature, Molecular Devices IMAP™ binding solution was added to bind phosphorylated substrate. After 30 minutes of incubation in the presence of the IMAP™ beads, the fluorescence polarization was read and the ratio was reported as mP. IC50 values for compounds and EC50 values for ATP were calculated using the Prism software from Graphpad.

| Structure (SMILES) | IC50 [1] | activity at 10 µM ([2]; 10 μM of test compound, 1 ng/mL LPS, 4 hours, read-out: IL-1β % (Percent inhibition values for inhibition of cytokine secretion)) | activity at 10 µM ([2]; 10 μM of test compound, 1 ng/mL LPS, 4 hours, read-out: TNF-α % (Percent inhibition values for inhibition of cytokine secretion)) | activity at 10 µM ([2]; read-out: IL-6 % (Percent inhibition values for inhibition of cytokine secretion), 10 μM of test compound, 1 ng/mL LPS, 4 hours) | Ki ([3]; average, read-out: p70S6K Ki) | Ki ([3]; read-out: p70S6K Ki, Avg) | Percent of PDGF Induced Proliferation at 1 μM Avg ([4]; 1 μM, 10 ng/mL PDGF) | Percent of PDGF Induced Proliferation at 10 μM Avg ([4]; 10 μM, 10 ng/mL PDGF) | Proliferation at 1 μM ([4]; average percent of PDGF stimulated proliferation at 1 μM test compound) | Proliferation at 10 μM ([4]; average percent of PDGF stimulated proliferation at 10 μM test compound) | Ki ([5]; average, read-out: Akt3 Ki) | Ki ([5]; read-out: Akt3 Ki, Avg) | concentration at 15 min [6] | Ki [7] | Ki ([7]; read-out: ROCK1 Ki, average) |
| --- | --- | --- | --- | --- | --- | --- | --- | --- | --- | --- | --- | --- | --- | --- | --- |
| CS(=O)(=O)Nc1cccc(CN2CCC[C@@H](Nc3ccc4[nH]ncc4c3)C2)c1 [Compound 1.093, (R)-N-(3-((3-(1H-indazol-5-ylamino)piperidin-1-yl)methyl)phenyl)methanesulfonamide] | 363000 nM |  |  |  |  |  |  |  |  |  |  |  |  |  |  |
| Cc1ccc(CN2CC[C@@H](Nc3cccc4cnccc34)C2)cc1OCCO [Compound 2.064, (R)-2-(5-((3-(isoquinolin-5-ylamino)pyrrolidin-1-yl)methyl)-2-methylphenoxy)ethanol] |  | 14.3% | 66.2% | 45.7% | 178 nM | 178 nM | 53.1% | 56.2% | 53.1% | 56.2% | 382 nM | 382 nM | 202 nM | 4.1 nM | 4.1 nM |
